{
  "source": "patent US6440954B1",
  "about": "“Inhibition of vascular smooth muscle cell proliferation” (President and Fellows of Harvard College, priority 1997, dated 2002)",
  "key": {"HASMCs": {"test_system": "HASMCs", "assay": "[3H]thymidine incorporation in HASMCs", "assay_type": "cell-based, human", "settings": "quiescent HASMCs, 24 h incubation, FIG. 2d", "procedure": "(§1) RASMCs were harvested from the thoracic aortas of adult male Sprague-Dawley rats (200-250 g) by enzymatic dissociation as described (Tsai et al., Proc. Natl. Acad. Sci. USA 91, 6369-6373 (1994)). The cells were grown in DMEM supplemented with 10% FCS, penicillin (100 U/ml), streptomycin (100 μg/ml), glutamine ([…]), and 25 mM Hepes (pH 7.4) in a humidified incubator (37° C., 5% CO2). HASMCs (Clonetics, San Diego) were grown in M199 medium (GIBCO BRL, Grand Island, N.Y.) supplemented with 20% FCS, penicillin (100 U/ml), streptomycin (100 μg/ml), and 25 mM Hepes (pH 7.4). Cells from passages 5-9 were used. RASMCs and HASMCs were cultured in 24-well plates containing an appropriate growth medium (DMEM plus 10% FCS for RASMCs, and M199 plus 20% FCS for HASMCs). After the cells had grown to 70-80% confluence, they were rendered quiescent by incubation for 72 h in DMEM (for RASMCs) or M199 (for HASMCs) containing 0.4% charcoal/dextran-treated FCS (FIGS. 2a and 2d) or 0.4% calf serum (CS) (FIGS. 2b and 2c). Phenol red-free DMEM was used in the experiments with estradiol (FIG. 2a). […] After incubation, the cells were washed with Dulbecco's PBS, fixed in cold 10% TCA for at least 2 h, and then washed with 95% ethanol. Incorporated [^3H]thymidine was extracted in 0.2 N NaOH and measured in a liquid scintillation counter."}, "RASMCs [1]": {"test_system": "RASMCs", "assay": "[3H]thymidine incorporation in RASMCs", "assay_type": "cell-based, rat", "procedure": "as §1"}, "[2]": {"test_system": "cyclin A, E, B and D1 mRNAs in RASMCs", "assay": "Northern analysis of cyclin mRNAs in RASMCs", "assay_type": "cell-based, rat", "settings": "24 h after treatment, FIG. 4", "procedure": "Total RNA from RASMCs was prepared from cultured RASMCs by guanidinium isothiocyanate extraction and centrifugation through cesium chloride. […] RNA samples (20 μg/lane) were electrophoresed on 1.3% formaldehyde-agarose gel, and then transferred onto nitrocellulose filters. The filters were hybridized to ^32P-labeled human cyclin probes as described (Lee et al., J. Biol. Chem. 266, 16188-16192 (1991); Lee et al., J. Biol Chem. 269, 12032-12039 (1994)). To normalize RNA content of each lane, the filters were washed at 80° C. in 50% formamide solution to remove the cyclin probes, and then hybridized with oligonucleotide probes for 28S RNA. Hybridized filters were washed in 30 mM NaCl, 3 mM sodium citrate, and 0.1% sodium dodecyl sulfate at 55° C. Radioactive signals were visualized on Kodak XAR film or PhosphorImager screens (Molecular Dynamics, Inc. Sunnyvale, Calif.)."}, "RASMCs [3]": {"test_system": "RASMCs", "assay": "Cell counting (RASMC proliferation)", "assay_type": "cell-based, rat", "settings": "FIG. 3b", "procedure": "RASMCs (2×10^4) were seeded onto 6-well plates and grown in DMEM supplemented with 10% FCS. […] Medium and progesterone were changed daily. Cells were counted in a Coulter apparatus at various times after their removal from the plates with trypsin-EDTA."}},
  "data": [
    {"smiles": "CC(=O)[C@H]1CC[C@H]2[C@@H]3CCC4=CC(=O)CC[C@]4(C)[C@H]3CC[C@]12C", "note": "[progesterone]", "values": [
      {"measurement": "effect on [3H]thymidine incorporation in HASMCs", "setting": "HASMCs", "value": "dose-dependent inhibition"},
      {"measurement": "effect of serum (FCS) concentration on progesterone-induced inhibition of [3H]thymidine incorporation", "setting": "RASMCs [1]; RASMCs, progesterone 500 nM, FIG. 2c", "value": "counteracted by serum in a dose-dependent manner"},
      {"measurement": "effect on [3H]thymidine incorporation in RASMCs", "setting": "RASMCs [1]; quiescent RASMCs, 24 h incubation, FIG. 2a/2b", "value": "inhibited"},
      {"measurement": "cyclin A mRNA level", "setting": "[2]", "value": "downregulated"},
      {"measurement": "cyclin B mRNA level", "setting": "[2]", "value": "did not change"},
      {"measurement": "cyclin D1 mRNA level", "setting": "[2]", "value": "did not change"},
      {"measurement": "cyclin E mRNA level", "setting": "[2]", "value": "downregulated"},
      {"measurement": "reduction in RASMC cell growth, dose dependence", "setting": "RASMCs [3]", "value": "dose-dependent"}
    ]}
  ]
}
